Values quoted from earlier work as cited in publication PMC6270209, “Synthesis, Antimycobacterial Activity and In Vitro Cytotoxicity of 5-Chloro-N-phenylpyrazine-2-carboxamides” (Molecules, 2013).

Test system: M. tbc strains (PZA-sensitive, PZA-resistant)
Parameters: method as in PMID 9527809
Conditions: cited from earlier work

NC(=O)c1cnc(Cl)cn1 [Compound 5-Cl-PZA, 5-chloropyrazine-2-carboxamide, reference compound]
MIC for PZA-resistant strains (PZA-resistant strains): 8 to 64 µg/mL | MIC for PZA-sensitive M. tbc strains (PZA-sensitive strains): 8 to 32 µg/mL
